# Literature values in PubChem BioAssay AID1259409 (Chemical Carcinogenesis Research Information System (CCRIS), 2018).
# System: rodent chemically induced tumor inhibition, incidence and multiplicity
# Test: CCRIS tumor inhibitor studies
# Details: Promoter: NONE USED
smiles,measurement,setting,value
CC(=O)OCC(=O)[C@H]1CC[C@H]2[C@@H]3CCC4=CC(=O)CC[C@]4(C)[C@H]3CC[C@]12C,"tumour outcome (control, treated, inhibition, significance)","Carcinogen: 1,2-DIMETHYLHYDRAZINE DIHYDROCHLORIDE, 306-37-6, Dose [Inhibitor]: 0, 10 MG/KG IN PEANUT OIL ON DAYS 1 AND 3 OF STUDY THEN 1/WK FOR 30 WK (STUDY DURATION: 31 WK), Route [Inhibitor]: SUBCUTANEOUS, Species: RAT, Strain/Sex: SPRAGUE-DAWLEY/MALE, Target Tissue: Type of Lesion: COLON: ADENOCARCINOMA, Dose [Carcinogen]: 9 MG/KG 1/WK FOR 7 WK THEN 19.4 MG/KG 1/WK FOR 13 WK","14/14 (100%), 13/13 (100%), 0%, not significant"
same,"tumour outcome (control, treated, inhibition, significance)","Carcinogen: 1,2-DIMETHYLHYDRAZINE DIHYDROCHLORIDE, 306-37-6, Dose [Inhibitor]: 0, 10 MG/KG IN PEANUT OIL ON DAYS 1 AND 3 OF STUDY THEN 1/WK FOR 30 WK (STUDY DURATION: 31 WK), Route [Inhibitor]: SUBCUTANEOUS, Species: RAT, Strain/Sex: SPRAGUE-DAWLEY/MALE, Target Tissue: Type of Lesion: SMALL INTESTINE: ADENOCARCINOMA, Dose [Carcinogen]: 9 MG/KG 1/WK FOR 7 WK THEN 19.4 MG/KG 1/WK FOR 13 WK","13/14 (93%), 9/13 (69%), 26%, not significant"
CC1=C(/C=C/C(C)=C/C=C/C(C)=C\C(=O)NCCO)C(C)(C)CCC1,"tumour outcome (control, treated, inhibition, significance)","Carcinogen: N-BUTYL-N-(4-HYDROXYBUTYL)NITROSAMINE, 3817-11-6, Dose [Inhibitor]: 1.5 MMOL/KG DIET DAILY FOR 159 D STARTING 1 WK AFTER THE FINAL CARCINOGEN DOSE (STUDY DURATION: 216 D), Route [Inhibitor]: ORAL, Species: MOUSE, Strain/Sex: DBF1/MALE, Target Tissue: Type of Lesion: URINARY BLADDER: TRANSITIONAL CELL CARCINOMA, Dose [Carcinogen]: 7.5 MG 1/WK FOR 8 WK","29/98 (30%), 16/97 (17%), 43%, p<0.05"
same,"tumour outcome (control, treated, inhibition, significance)","Carcinogen: N-BUTYL-N-(4-HYDROXYBUTYL)NITROSAMINE, 3817-11-6, Dose [Inhibitor]: 1.5 MMOL/KG IN DIET FOR 159 D STARTING 1 WK AFTER LAST CARCINOGEN DOSE (STUDY DURATION: 216 D), Route [Inhibitor]: ORAL, Species: MOUSE, Strain/Sex: BDF/MALE, Target Tissue: Type of Lesion: URINARY BLADDER: TRANSITIONAL CELL CARCINOMA, Dose [Carcinogen]: 7.5 MG 1/WK FOR 8 WK","29/98 (30%), 16/97 (17%), 43%, p<0.05"
O=C(O)C[CH2][Ge](=[O])[O][Ge](=[O])[CH2]CC(=O)O,"tumour outcome (control, treated, inhibition, significance)","Carcinogen: 1,2-DIMETHYLHYDRAZINE, 540-73-8, Dose [Inhibitor]: 0, 100 MG/KG BW 1/D FOR FIRST 8 WK THEN 1/2 D FOR 19 WK (STUDY DURATION: 27 WK), Route [Inhibitor]: GAVAGE, Species: RAT, Strain/Sex: WISTAR/MALE, Target Tissue: Type of Lesion: COLON: TUMOR, Dose [Carcinogen]: 20 MG/KG BW 1/WK FOR 15 WK","36/36 (100%), 33/35 (94%), 6%, not significant"
same,"tumour outcome (control, treated, inhibition, significance)","Carcinogen: DIETHYLNITROSAMINE, 55-18-5, N-METHYL-N-NITROSOUREA, 684-93-5, N,N-DIBUTYLNITROSAMINE, 924-16-3, Carcinogen: DIETHYLNITROSAMINE, 55-18-5, N-METHYL-N-NITROSOUREA, 684-93-5, N,N-DIBUTYLNITROSAMINE, 924-16-3, Dose [Inhibitor]: 0, 0.05% IN DIET BEGINNING POST CARCINOGEN TREATMENT AND CONTINUING TO WK 40 (STUDY DURATION: 40 WK), Route [Inhibitor]: ORAL, Species: RAT, Strain/Sex: F344/MALE, Target Tissue: Type of Lesion: LUNG: ADENOMA, Dose [Carcinogen]: 100 MG/KG DIETHYLNITROSAMINE ONCE FOLLOWED BY 20 MG/KG N-METHYL-N-NITROSOUREA ON D 2, 5, 8 AND 11 THEN 0.05% N-N-DIBUTYL","9/16 (56%), 1/19 (5%), 91%, p<0.001"
same,"tumour outcome (control, treated, inhibition, significance)","Carcinogen: DIETHYLNITROSAMINE, 55-18-5, N-METHYL-N-NITROSOUREA, 684-93-5, N,N-DIBUTYLNITROSAMINE, 924-16-3, Carcinogen: DIETHYLNITROSAMINE, 55-18-5, N-METHYL-N-NITROSOUREA, 684-93-5, N,N-DIBUTYLNITROSAMINE, 924-16-3, Dose [Inhibitor]: 0, 0.05% IN DIET BEGINNING POST CARCINOGEN TREATMENT AND CONTINUING TO WK 40 (STUDY DURATION: 40 WK), Route [Inhibitor]: ORAL, Species: RAT, Strain/Sex: F344/MALE, Target Tissue: Type of Lesion: LUNG: CARCINOMA, Dose [Carcinogen]: 100 MG/KG DIETHYLNITROSAMINE ONCE FOLLOWED BY 20 MG/KG N-METHYL-N-NITROSOUREA ON D 2, 5, 8 AND 11 THEN 0.05% N-N-DIBUTYL","3/16 (19%), 0/19 (0%), 100%, not calculated"
same,"tumour outcome (control, treated, inhibition, significance)","Carcinogen: DIETHYLNITROSAMINE, 55-18-5, N-METHYL-N-NITROSOUREA, 684-93-5, N,N-DIBUTYLNITROSAMINE, 924-16-3, Carcinogen: DIETHYLNITROSAMINE, 55-18-5, N-METHYL-N-NITROSOUREA, 684-93-5, N,N-DIBUTYLNITROSAMINE, 924-16-3, Dose [Inhibitor]: 0, 0.05% IN DIET BEGINNING POST CARCINOGEN TREATMENT AND CONTINUING TO WK 40 (STUDY DURATION: 40 WK), Route [Inhibitor]: ORAL, Species: RAT, Strain/Sex: F344/MALE, Target Tissue: Type of Lesion: THYROID: ADENOMA, Dose [Carcinogen]: 100 MG/KG DIETHYLNITROSAMINE ONCE FOLLOWED BY 20 MG/KG N-METHYL-N-NITROSOUREA ON D 2, 5, 8 AND 11 THEN 0.05% N-N-DIBUTYL","8/16 (50%), 2/19 (11%), 78%, p<0.02"
same,"tumour outcome (control, treated, inhibition, significance)","Carcinogen: DIETHYLNITROSAMINE, 55-18-5, N-METHYL-N-NITROSOUREA, 684-93-5, N,N-DIBUTYLNITROSAMINE, 924-16-3, Carcinogen: DIETHYLNITROSAMINE, 55-18-5, N-METHYL-N-NITROSOUREA, 684-93-5, N,N-DIBUTYLNITROSAMINE, 924-16-3, Dose [Inhibitor]: 0, 0.05% IN DIET BEGINNING POST CARCINOGEN TREATMENT AND CONTINUING TO WK 40 (STUDY DURATION: 40 WK), Route [Inhibitor]: ORAL, Species: RAT, Strain/Sex: F344/MALE, Target Tissue: Type of Lesion: THYROID: CARCINOMA, Dose [Carcinogen]: 100 MG/KG DIETHYLNITROSAMINE ONCE FOLLOWED BY 20 MG/KG N-METHYL-N-NITROSOUREA ON D 2, 5, 8 AND 11 THEN 0.05% N-N-DIBUTYL","2/16 (13%), 1/19 (5%), 62%, not calculated"
same,"tumour outcome (control, treated, inhibition, significance)","Carcinogen: DIETHYLNITROSAMINE, 55-18-5, N-METHYL-N-NITROSOUREA, 684-93-5, N,N-DIBUTYLNITROSAMINE, 924-16-3, Carcinogen: DIETHYLNITROSAMINE, 55-18-5, N-METHYL-N-NITROSOUREA, 684-93-5, N,N-DIBUTYLNITROSAMINE, 924-16-3, Dose [Inhibitor]: 0, 0.05% IN DIET BEGINNING POST CARCINOGEN TREATMENT AND CONTINUING TO WK 40 (STUDY DURATION: 40 WK), Route [Inhibitor]: ORAL, Species: RAT, Strain/Sex: F344/MALE, Target Tissue: Type of Lesion: URINARY BLADDER: CARCINOMA, Dose [Carcinogen]: 100 MG/KG DIETHYLNITROSAMINE ONCE FOLLOWED BY 20 MG/KG N-METHYL-N-NITROSOUREA ON D 2, 5, 8 AND 11 THEN 0.05% N-N-DIBUTYL","1/16 (6%), 0/19 (0%), 100%, not calculated"
same,"tumour outcome (control, treated, inhibition, significance)","Carcinogen: DIETHYLNITROSAMINE, 55-18-5, N-METHYL-N-NITROSOUREA, 684-93-5 N,N-DIBUTYLNITROSAMINE, 924-16-3, Carcinogen: DIETHYLNITROSAMINE, 55-18-5, N-METHYL-N-NITROSOUREA, 684-93-5 N,N-DIBUTYLNITROSAMINE, 924-16-3, Dose [Inhibitor]: 0, 0.05% IN DIET BEGINNING POST CARCINOGEN TREATMENT AND CONTINUING TO WK 40 (STUDY DURATION: 40 WK), Route [Inhibitor]: ORAL, Species: RAT, Strain/Sex: F344/MALE, Target Tissue: Type of Lesion: URINARY BLADDER: PAPILLOMA, Dose [Carcinogen]: 100 MG/KG DIETHYLNITROSAMINE ONCE FOLLOWED BY 20 MG/KG N-METHYL-N-NITROSOUREA ON D 2, 5, 8 AND 11 THEN 0.05% N-N-DIBUTYL","4/16 (25%), 1/19 (5%), 80%, not calculated"
CC(=O)[C@@H]1C[C@@H]2C[C@H]1[C@@H](N=C=S)C2,"tumour outcome (control, treated, inhibition, significance)","Carcinogen: 7,12-DIMETHYLBENZ[A]ANTHRACENE, 57-97-6, Dose [Inhibitor]: 0, 75 UMOL/D IN 0.5 ML EMULPHOR EL-620 FOR 5 CONSECUTIVE DAYS BEGINNING AT 47 D OF AGE (STUDY DURATION: 155 D), Route [Inhibitor]: GAVAGE, Species: RAT, Strain/Sex: SPRAGUE-DAWLEY/FEMALE, Target Tissue: Type of Lesion: MAMMARY GLAND: TUMOR, Dose [Carcinogen]: 8 MG IN 1 ML SESAME OIL ONCE AT 50 D OF AGE","17/25 (68%), 5/20 (25%), 63%, p<0.05"
same,"tumour outcome (control, treated, inhibition, significance)","Carcinogen: 7,12-DIMETHYLBENZ[A]ANTHRACENE, 57-97-6, Dose [Inhibitor]: 0, 150 UMOL/D IN 0.5 ML EMULPHOR EL-620 FOR 5 CONSECUTIVE DAYS BEGINNING AT 47 D OF AGE (STUDY DURATION: 155 D), Route [Inhibitor]: GAVAGE, Species: RAT, Strain/Sex: SPRAGUE-DAWLEY/FEMALE, Target Tissue: Type of Lesion: MAMMARY GLAND: TUMOR, Dose [Carcinogen]: 8 MG IN 1 ML SESAME OIL ONCE AT 50 D OF AGE","17/25 (68%), 5/20 (25%), 63%, p<0.05"
